# Results as given in the supplement of paper PMC10307832.
# Columns and labels:
# Test in all cases: relative viability (nuclei count vs DMSO), 5 days (fraction); higher = more cells survive
# Olaparib + Tozasertib = compound: O=C(c1cc(Cc2n[nH]c(=O)c3ccccc23)ccc1F)N1CCN(C(=O)C2CC2)CC1 [Olaparib] + Cc1cc(Nc2cc(N3CCN(C)CC3)nc(Sc3ccc(NC(=O)C4CC4)cc3)n2)n[nH]1 [Tozasertib] (partner 0.1 µM)
# How it was run: (§1)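 Five library-drug doses in √10 steps were combined with a fixed anchor-drug dose, or a single drug was given alone, by pin tool to lung cancer cell lines in 1536-well plates the day after seeding. Nuclei were stained and counted after 5 days. Relative viability is the nuclei count in treated wells over that in vehicle wells, taken as the median of duplicate plates.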
# Crizotinib + Foretinib = compound: C[C@@H](Oc1cc(-c2cnn(C3CCNCC3)c2)cnc1N)c1c(Cl)ccc(F)c1Cl [Crizotinib] + COc1cc2c(Oc3ccc(NC(=O)C4(C(=O)Nc5ccc(F)cc5)CC4)cc3F)ccnc2cc1OCCCN1CCOCC1 [Foretinib] (partner 0.25 µM)
# How it was run: as §1
# Olaparib + Pictilisib = compound: O=C(c1cc(Cc2n[nH]c(=O)c3ccccc23)ccc1F)N1CCN(C(=O)C2CC2)CC1 [Olaparib] + CS(=O)(=O)N1CCN(Cc2cc3nc(-c4cccc5[nH]ncc45)nc(N4CCOCC4)c3s2)CC1 [Pictilisib] (partner 1 µM)
# How it was run: as §1
# Olaparib + Luminespib = compound: O=C(c1cc(Cc2n[nH]c(=O)c3ccccc23)ccc1F)N1CCN(C(=O)C2CC2)CC1 [Olaparib] + CCNC(=O)c1noc(-c2cc(C(C)C)c(O)cc2O)c1-c1ccc(CN2CCOCC2)cc1 [Luminespib] (partner 0.01 µM)
# How it was run: as §1
# Carfilzomib + OSI-027 = compound: CC(C)C[C@H](NC(=O)[C@H](CCc1ccccc1)NC(=O)CN1CCOCC1)C(=O)N[C@@H](Cc1ccccc1)C(=O)N[C@@H](CC(C)C)C(=O)[C@@]1(C)CO1 [Carfilzomib] + COc1cccc2cc(-c3nc([C@H]4CC[C@H](C(=O)O)CC4)n4ncnc(N)c34)[nH]c12 [OSI-027] (partner 0.5 µM)
# How it was run: as §1
cell line,measurement,setting,value
NCI-H1793,relative viability,Olaparib + Tozasertib; first compound 0.08 µM,0.324
same,relative viability,Olaparib + Tozasertib; first compound 0.253 µM,0.279
same,relative viability,Olaparib + Tozasertib; first compound 2.53 µM,0.409
same,relative viability,Olaparib + Tozasertib; first compound 8 µM,0.358
same,relative viability,Crizotinib + Foretinib; first compound 0.03162 µM,0.879
same,relative viability,Crizotinib + Foretinib; first compound 0.1 µM,0.604
same,relative viability,Crizotinib + Foretinib; first compound 1 µM,0.705
same,relative viability,Olaparib + Pictilisib; first compound 0.08 µM,0.515
same,relative viability,Olaparib + Pictilisib; first compound 0.253 µM,0.389
same,relative viability,Olaparib + Pictilisib; first compound 2.53 µM,0.251
same,relative viability,Olaparib + Pictilisib; first compound 8 µM,0.298
same,relative viability,Olaparib + Luminespib; first compound 0.08 µM,0.144
same,relative viability,Olaparib + Luminespib; first compound 0.253 µM,0.225
same,relative viability,Olaparib + Luminespib; first compound 2.53 µM,0.138
same,relative viability,Olaparib + Luminespib; first compound 8 µM,0.149
same,relative viability,Carfilzomib + OSI-027; first compound 0.003162 µM,0.323
same,relative viability,Carfilzomib + OSI-027; first compound 0.01 µM,0.369
same,relative viability,Carfilzomib + OSI-027; first compound 0.03162 µM,0.269
same,relative viability,Carfilzomib + OSI-027; first compound 0.1 µM,0.133
